Data taken from PMC8578336, “Neuroprotection of retinal ganglion cells by the sigma-1 receptor agonist pridopidine in models of experimental glaucoma” (Scientific Reports, 2021).
pKi: −log10 of the molar value. Counter-ions that a name gives are not always drawn. Like-named read-outs stand apart in the source and are kept apart here.

Key:
[1] = tested on: retinal ganglion cells (RGCs); conditions: for RGC loss (%): OD vs OS eye, mean ± SEM
Protocol: Hypertonic saline injection (HSI) was performed on day 0 and day 7 into the episcleral veins of the right eye of pigmented Brown Norway rats in order to create a sustained increase of IOP.
Over the course of the study, animals were clinically evaluated daily, and IOP and body weight measured weekly (Fig. 1a).
The number of RGCs was quantified using immunofluorescent staining for the RGC marker brain-specific homeobox/POU domain protein 3A (Brn-3a), followed by image analysis. RGCs were counted in one medial and one distal area in each retinal quadrant, up to eight regions per retina (Fig. 1c, Supp Table 4). The percent of RGC loss was calculated by comparing the number of RGC counts per retina in the OD eye to that in the OS eye. […] Rats were sedated with ketamine and xylazine (40–80 and 5–10 mg/kg, respectively), kept warm and eyes moist to avoid desiccation during the procedure. Eye surface was treated with erythromycin (0.5%). On Days 0 and 7, hypertonic saline solution (250 μL, NaCl, 1.8–2.0 M) was injected into the limbal vascular plexus via different episcleral veins in the OHT eye.
Eyes were immediately enucleated following CO2 euthanasia and fixed in paraformaldehyde (PFA, 4%) at 4 °C for 24 h, then dissected in PBS. Retinas were permeabilized in PBS + 0.5% Triton X-100 for 15 min, frozen at − 80 °C for 15 min, then rinsed in PBS-0.5% Triton. […] Four radial cuts were made in the retina and it was flat-mounted. Two regions of interest (medial and distal) were acquired in each quadrant with fluorescent microscopy, and RGCs counted using ImageJ.

[2] = tested on: retinal ganglion cells (RGCs); conditions: for Loss of RBPMS-positive RGCs, lasered vs control eye (difference): 14 days; for Number of RGCs per retinal area, mean: 125/55 criterion
Protocol: (§1) The laser coagulation (LC) model of experimental glaucoma was utilized in Wistar rats. Additional benefits of using this model are avoiding idiosyncratic features inherent to a single model and increasing the likelihood of future translatability to human glaucoma[28],[29]. Both models utilize elevation of IOP, but to different degrees and with different time courses. Unilateral induction of IOP elevation was performed twice, at day 0 and day 7. […] IOP was measured at baseline, and after laser photocoagulation on days 1, 4, 7, 8, and 14 (Fig. 3a). At the end of the study, RGC numbers were assessed by immunostaining (Fig. 3b).
The number of RGCs was quantified using immunofluorescent staining for RNA-binding protein with multiple splicing (RBPMS), an RGC-specific marker, followed by stereological analysis of the entire retina[30] (Fig. 3c).
IOP was measured with a TonoLab tonometer.
Compounds were administered daily by oral gavage. On day 14 rats were sacrificed by transcardial perfusion, first with 0.9% NaCl solution, then with 4% PFA in 0.1 M phosphate buffer, pH 7.4. Eyes and optic nerves were collected for immunohistochemical analysis.
Retinal flat-mounts were immunostained with rabbit anti-RBPMS (PhosphoSolutions) and DAPI nuclear stain. Total number of RBPMS-positive cells was estimated using stereology as previously described.

optic nerve axons = conditions: for Loss of optic nerve axons vs. control eye (difference): 14 days; for Number of optic nerve axons, mean: 125/55 criterion
Protocol: as §1
Neuroprotective preservation of visual function in glaucoma and other optic neuropathies depends not only on preservation of cell bodies, but also on maintaining connectivity between the eye and the brain. Connectivity is preserved by protecting RGC axons[31]–[33], i.e. axoprotection. To study this, the number of optic nerve axons per optic nerve area was compared between different treatment groups (Fig. 4a,b). […] Compounds were administered daily by oral gavage. On day 14 rats were sacrificed by transcardial perfusion, first with 0.9% NaCl solution, then with 4% PFA in 0.1 M phosphate buffer, pH 7.4. Eyes and optic nerves were collected for immunohistochemical analysis.
Optic nerves were postfixed in 4% PFA (in 0.1 M phosphate buffer, pH 7.4), placed in 1% osmium, dehydrated in ascending alcohol concentrations, and placed in 1% uranyl acetate in 100% ethanol for 1 h[76],[77]. Optic nerves were embedded in epoxy resin mixture at 60 °C for 48 h and 1 µm sections prepared. Axon number was estimated using stereology, as previously described.

[3] = tested on: mouse striatal neuronal cultures; conditions: 1 μM, 24 h
Protocol: Previous studies have shown a regulatory role of the S1R in mitochondrial function in retinal ganglion cells under stress[36]–[39]. […] (b) Quantification of OCR rate. […] Mitochondrial membrane potential was measured in isolated striatal mitochondria using Rhodamine123 (d) and quantified (e). […] Data are the mean ± SEM. All experiments were run in triplicates. *p < 0.05, **p < 0.01 by non-parametric Kruskal–Wallis test or Mann–Whitney test (in e).
Striatal neurons were isolated as previously described[78] from embryos at gestational day 16–17. […] Pridopidine was added for 24 h.

striatal neurons = conditions: 1 μM, 24 h; NMDA 10 µM + glycine 20 µM 15 min; p = 0.0072
Protocol: (§2) (b) Quantification of OCR rate. […] Mitochondrial membrane potential was measured in isolated striatal mitochondria using Rhodamine123 (d) and quantified (e). […] Data are the mean ± SEM. All experiments were run in triplicates. *p < 0.05, **p < 0.01 by non-parametric Kruskal–Wallis test or Mann–Whitney test (in e).
Striatal neurons were isolated as previously described[78] from embryos at gestational day 16–17.

[4] = tested on: isolated striatal mitochondria; conditions: 30 mg/kg daily for 45 days; p = 0.0013
Protocol: as §2

human lymphoblasts [5] = conditions: 5 μM pretreatment 24 h; H2O2 0.1 mM 6 h; p < 0.0001
Protocol: (§3) ROS levels were quantified by co-staining with CellRox and DAPI. (a) Representative image and (b) quantification. […] Data is the mean ± SEM. *p < 0.05, ***p < 0.001, ****p < 0.0001 by two-way ANOVA with a Tukey’s multiple comparisons in (b), by non-parametric Mann–Whitney in (d), or Kruskal–Wallis test in (c) and (e). Full-length blots are presented in Supplementary Fig. 2.
(§4) Lymphoblasts (Corriel Institute, GM02174) were grown in RPMI medium containing 10% FBS, 2 mM L-glutamax, and 100 U/mL penicillin–streptomycin and passaged every 5–6 days. […] S1R knockdown was achieved using S1R-directed siRNA duplexes (Origene, cat no: SR426072). Transfection with Polyplus JETPRIME transfection protocol was performed 48 h before experiments. S1R knockdown was assessed by immunoblot.

human lymphoblasts [6] = conditions: 5 µM, 24 h
Protocol: as §3
Mitochondrial function was then assessed with the MMP-dependent probe TMRE (tetramethylrhodamine ethyl ester).
as §4

S1R = conditions: cited from earlier work
[7] = target: empopamil binding protein (EBP); parameters: method as in PMID 11377189; conditions: cited from earlier work
Kappa opioid receptor = target: Kappa opioid receptor; parameters: method as in PMID 16125682; conditions: cited from earlier work

## CCCN1CCC(c2cccc(S(C)(=O)=O)c2)CC1 [Pridopidine]
[1]; 3 mg/kg daily oral gavage day 1-41
  RGC loss (%): 25 ± 7%
[1]; 3 mg/kg, OD eye
  Mean RGC count/animal: 105.25
[1]; 3 mg/kg, OS eye
  Mean RGC count/animal: 144.75
[1]; 30 mg/kg daily oral gavage day 1-41
  RGC loss (%): 21 ± 6%
[1]; 30 mg/kg, OD eye
  Mean RGC count/animal: 122.78
[1]; 30 mg/kg, OS eye
  Mean RGC count/animal: 158.56
[1]; 30 mg/kg, p = 0.019
  RGC neuroprotection compared to vehicle control: 50%
[1]; 60 mg/kg daily oral gavage day 1-41
  RGC loss (%): 7 ± 9%
[1]; 60 mg/kg, OD eye
  Mean RGC count/animal: 116.50
[1]; 60 mg/kg, OS eye
  Mean RGC count/animal: 130.40
[1]; 60 mg/kg, p = 0.005
  RGC neuroprotection compared to vehicle control: 83%
[2]; 3 mg/kg daily oral
  Loss of RBPMS-positive RGCs, lasered vs control eye (difference): 5.2%
[2]; 3 mg/kg, control eye
  Number of RGCs per retinal area, mean: 1404
[2]; 3 mg/kg, lasered eye
  Number of RGCs per retinal area, mean: 1315
[2]; 30 mg/kg daily oral
  Loss of RBPMS-positive RGCs, lasered vs control eye (difference): 7.7%
[2]; 30 mg/kg, control eye
  Number of RGCs per retinal area, mean: 1444
[2]; 30 mg/kg, lasered eye
  Number of RGCs per retinal area, mean: 1336
[2]; 60 mg/kg daily oral
  Loss of RBPMS-positive RGCs, lasered vs control eye (difference): 13.9%
[2]; 60 mg/kg, control eye
  Number of RGCs per retinal area, mean: 1417
[2]; 60 mg/kg, lasered eye
  Number of RGCs per retinal area, mean: 1198
Optic nerve axons; 3 mg/kg
  Axoprotection of optic nerves compared to the vehicle group: 69%
Optic nerve axons; 3 mg/kg daily oral, p = 0.006
  Loss of optic nerve axons vs. control eye (difference): 8.6%
Optic nerve axons; 3 mg/kg, control eye
  Number of optic nerve axons, mean: 394
Optic nerve axons; 3 mg/kg, lasered eye
  Number of optic nerve axons, mean: 358
Optic nerve axons; 30 mg/kg
  Axoprotection of optic nerves compared to the vehicle group: 45%
Optic nerve axons; 30 mg/kg daily oral, p = 0.04
  Loss of optic nerve axons vs. control eye (difference): 15%
Optic nerve axons; 30 mg/kg, control eye
  Number of optic nerve axons, mean: 433
Optic nerve axons; 30 mg/kg, lasered eye
  Number of optic nerve axons, mean: 363
Optic nerve axons; 60 mg/kg
  Axoprotection of optic nerves compared to the vehicle group: 74%
Optic nerve axons; 60 mg/kg daily oral, p = 0.002
  Loss of optic nerve axons vs. control eye (difference): 7.6%
Optic nerve axons; 60 mg/kg, control eye
  Number of optic nerve axons, mean: 395
Optic nerve axons; 60 mg/kg, lasered eye
  Number of optic nerve axons, mean: 365
[3]; p = 0.0015
  ATP production: significantly increases
[3]; p = 0.0061
  Maximal mitochondrial respiration: significantly increases
[3]; p = 0.0082
  Basal mitochondrial respiration: significantly increases
Striatal neurons
  Mitochondrial membrane potential (MMP) after NMDA plus glycine: rescues the decrease in MMP
[4]
  MMP in isolated mitochondria from treated mice: increase in MMP
Human lymphoblasts [5]
  H2O2-induced ROS production (CellRox staining): significantly ameliorated
Human lymphoblasts [6]; S1R genetically silenced with siRNA
  H2O2-induced reduction of MMP (TMRE): unable to rescue MMP
Human lymphoblasts [6]; S1R-expressing cells, p = 0.0002
  H2O2-induced reduction of MMP (TMRE): rescues this effect
S1R
  pKi: 7.24

## COc1ccc(CCN2CCN(CCCc3ccccc3)CC2)cc1OC [SA4503, cutamesine dihydrochloride, reference compound]
S1R
  pKi: 7.76
[7]
  pKi: 8.76

## CC(C)=CCN1CC[C@]2(C)c3cc(O)ccc3C[C@H]1[C@H]2C [PTZ, (+)pentazocine]
Kappa opioid receptor
  pKi: 8.66
